US20160355530A1, “HEPATITIS C INHIBITORS AND USES THEREOF” (AbbVie Inc., priority 2010, published 2016)
Like-named read-outs stand apart in the source and are kept apart here.

How the values were obtained:
[1] = tested on: HCV 1a-H77 C316Y mutant subgenomic replicon; test: Stable replicon cell culture assay (luciferase), 1a-H77-C316Y mutant; type: cell-based, HCV genotype 1a; settings: for EC50: Hepatitis C virus, read-out: Stable Replicon 1a H77-C316Y 5% FBS EC50; for Stable Replicon Fold Resistance C316Y/1a: ratio of stable replicon EC50s, C316Y / 1a H77
[2] = target: T1, HCV NS5B polymerase 1b BK strain (Hepatitis C virus genotype 1b, UniProt P26663); test: HCV NS5B polymerase enzymatic inhibition assay, strain 1b BK; type: biochemical; settings: enzyme, strain 1b BK; read-out: HCV Polymerase Strain 1b BK IC50
T1 construct: six-histidine tag; made in house; host or cells: E. coli
Procedure, shortened: (§1)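 Recombinant NS5B (residues 1–570, His-tagged, E. coli-expressed) copied 5 nM of a 2.1 kb HCV 1b negative-strand 3′-end RNA template with 20 μM CTP, 20 μM ATP and 0.284 μM [3H]UTP for 3 h at 30 °C. Spermine-precipitated RNA was filter-captured and counted, and IC50 was fitted by nonlinear regression.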

[3] = tested on: HCV 1a-H77 subgenomic replicon; test: microbe, parasite or virus in culture; type: cell-based, HCV genotype 1a; settings: Hepatitis C virus, stable replicon
[4] = tested on: chimeric replicon with genotype 2b NS5B; test: microbe, parasite or virus in culture; type: cell-based, HCV genotype 2b; settings: Hepatitis C virus, read-out: 2b chimera 5% FBS EC50
[5] = tested on: HCV 1b-Con1 subgenomic replicon; test: Stable replicon cell culture assay (luciferase), 1b-Con1; 5% FBS, optionally 40% human plasma; type: cell-based, HCV genotype 1b; settings: Hepatitis C virus
[6] = target: T2, HCV NS5B polymerase 1a-H77-C316Y (Hepatitis C virus genotype 1a, UniProt P27958, C2736Y); test: biochemical; parameters: species or system HCV genotype 1a
T2 construct: six-histidine tag; made in house; host or cells: E. coli
Procedure, shortened: as §1

[7] = tested on: HCV NS5B polymerase 1a-H77-C316Y; test: biochemical; parameters: species or system HCV genotype 1a; settings: ratio of enzyme IC50s, 1a H77-C316Y / 1a H77
Procedure, shortened: as §1

[8] = target: T3, HCV NS5B polymerase 1a-H77 (Hepatitis C virus genotype 1a, UniProt P27958); test: biochemical; parameters: species or system HCV genotype 1a; settings: enzyme, strain 1a H77; read-out: HCV Polymerase Strain 1a H77 IC50
T3 construct: six-histidine tag; made in house; host or cells: E. coli
Procedure, shortened: as §1

[9] = target: T4, HCV NS5B polymerase 1b Rice (Hepatitis C virus genotype 1b, UniProt Q9WMX2); test: HCV NS5B polymerase enzymatic inhibition assay, strain 1b Rice; type: biochemical, HCV genotype 1b; settings: enzyme
T4 construct: six-histidine tag; made in house; host or cells: E. coli
Experimental: Purified HCV NS5B polymerase enzymes were used for polymerase inhibition assays. All recombinant HCV polymerases contained the first 570 amino acids of the 591 amino acid native protein sequence and a six-histidine tag at the N-terminus or C-terminus to facilitate purification by affinity chromatography. The DNA nucleotide sequence for the HCV polymerase 1b BK strain was codon optimized for expression in E. coli. A synthetic gene was prepared from a series of overlapping oligonucleotides that were filled in using a DNA polymerase and amplified by PCR. The patient isolate HCV polymerases were cloned by RT-PCR methods using HCV RNA extracted from the serum of infected subjects obtained from ProMedDx and BioCollections (genotypes 2a, 2b, 3a, and 4a). Laboratory strains were cloned from plasmid DNA (1a-H77 or 1a-H77-C316Y) or from existing replicon cells (1b Rice). In all cases the amplified DNA was cloned into a protein expression vector (typically a pET vector from Novagen) and then multiple clones were sequenced to identify one whose NS5B sequence agreed with the population sequence. This sequence-confirmed clone was then transfected into E. coli for protein expression and purification. E. coli cultures were grown to a maximum optical density (OD) of 2-3 and then induced with 0.4 mM isopropyl beta-D-thiogalactopyranoside (IPTG) and grown for 20 hours at 20° C.
Proteins were purified using nickel affinity chromatography, and additional column steps were added including, ion exchange, size exclusion, hydrophobic ion, and poly-U affinity chromatography, as needed, depending on the sample being purified. The template RNA used in the polymerase enzymatic assay was a 2.1 kb construct that corresponds to the 3′-end of an HCV genotype 1b negative strand RNA.
The reaction was initiated by the addition of 20 μM CTP, 20 μM ATP, 0.284 μM (0.5 μCi) of 5,6-[^3H] UTP, 5 nM template RNA and 0.1 U/μL RNase inhibitor (RNasin, Promega), and allowed to proceed for three hours at 30° C. The final reaction volume was 50 μL. The reaction was terminated by the addition of 50 uL of 4 mM spermine in 10 mM Tris-HCl, pH 7.5, 1 mM EDTA. The quenched reaction was allowed to incubate for at least 15 minutes at room temperature, and then the precipitated RNA was captured by filtration through a glass fiber filter (GF/B, Millipore) in a 96 well format. The filter plate was washed five times with 200 μL of 2 mM spermine, 10 mM Tris-HCl, pH 8.0, 1 mM EDTA, and two times with ethanol. After drying thoroughly in air, 30 μL of Microscint-20 scintillation cocktail (Perkin Elmer) was added to each well, and the retained cpm were determined by scintillation counting. IC50 values were determined by nonlinear regression.
% Inhibition=100*[[I]/([I]+[IC50])] equation 1
V=kcat[S]/2(Km+[S])*(sqrt((IC50+I−E)̂2+(4*IC50*E))−(IC50+I−E)) equation 2

[10] = tested on: chimeric replicon with genotype 3a NS5B; test: microbe, parasite or virus in culture; type: cell-based, HCV genotype 3a; settings: Hepatitis C virus, read-out: 3a chimera 5% FBS EC50
[11] = tested on: HCV 1a-H77-C316Y transient subgenomic replicon in Huh-7 derived cell line; test: microbe, parasite or virus in culture; type: cell-based, HCV genotype 1a
Procedure, shortened: (§2)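 Transient format: T7-transcribed replicon RNA lacking Neo, electroporated into Huh-7-derived cells (5×10^3/well), input RNA checked by luciferase at 4 h. Three-fold compound dilution series, 0.5% DMSO, 4 days at 37° C; EC50 from luciferase signal in lysed cells.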

[12] = tested on: HCV 1a-H77 transient subgenomic replicon in Huh-7 derived cell line; test: microbe, parasite or virus in culture; type: cell-based, HCV genotype 1a; settings: Hepatitis C virus, Huh-7; transient replicon, 5% FBS; read-out: Transient Replicon 1a H77 5% FBS EC50
Procedure, shortened: as §2

[13] = tested on: chimeric replicon with genotype 4a NS5B; test: microbe, parasite or virus in culture; type: cell-based, HCV genotype 4a; settings: Hepatitis C virus, read-out: 4a chimera 5% FBS EC50
[14] = tested on: chimeric replicon with 2a-J6CF-derived NS5B; test: microbe, parasite or virus in culture; type: cell-based, HCV genotype 2a; settings: Hepatitis C virus, read-out: 2a chimera 5% FBS EC50
[15] = 5% FBS, absence of human plasma, read-out: Stable Replicon 1a H77 5% FBS EC50
[16] = strain 1a H77, 5% FBS + 40% human plasma, read-out: 1a H77 5% FBS + 40% Human Plasma EC50
[17] = strain 1a H77, 5% FBS, no human plasma, read-out: 1a H77 5% FBS EC50
[18] = strain 1a H77, 5% FBS, read-out: 1a H77 5% FBS EC50
[19] = strain 1b Con1, 5% FBS + 40% human plasma, read-out: 1b Con1 5% FBS + 40% Human Plasma EC50
[20] = strain 1b Con1, 5% FBS, no human plasma, read-out: 1b Con1 5% FBS EC50
[21] = strain 1b Con1, 5% FBS, read-out: 1b Con1 5% FBS EC50

T1 sequence (P26663 2420-2989): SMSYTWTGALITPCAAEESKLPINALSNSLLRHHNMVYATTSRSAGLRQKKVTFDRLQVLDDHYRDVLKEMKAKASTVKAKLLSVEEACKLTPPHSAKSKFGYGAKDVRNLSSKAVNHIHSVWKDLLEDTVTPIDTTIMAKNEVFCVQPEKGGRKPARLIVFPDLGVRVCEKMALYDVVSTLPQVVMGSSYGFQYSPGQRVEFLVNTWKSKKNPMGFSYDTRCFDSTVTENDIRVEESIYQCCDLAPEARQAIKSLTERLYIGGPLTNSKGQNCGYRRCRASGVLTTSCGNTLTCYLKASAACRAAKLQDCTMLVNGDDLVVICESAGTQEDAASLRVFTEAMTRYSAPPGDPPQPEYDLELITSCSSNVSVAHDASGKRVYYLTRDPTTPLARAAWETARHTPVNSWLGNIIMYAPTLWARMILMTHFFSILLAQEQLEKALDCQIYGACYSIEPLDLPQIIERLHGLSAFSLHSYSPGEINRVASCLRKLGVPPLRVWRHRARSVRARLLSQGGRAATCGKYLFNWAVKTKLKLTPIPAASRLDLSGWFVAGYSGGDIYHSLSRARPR
T2 sequence (P27958 2421-2990 C2736Y): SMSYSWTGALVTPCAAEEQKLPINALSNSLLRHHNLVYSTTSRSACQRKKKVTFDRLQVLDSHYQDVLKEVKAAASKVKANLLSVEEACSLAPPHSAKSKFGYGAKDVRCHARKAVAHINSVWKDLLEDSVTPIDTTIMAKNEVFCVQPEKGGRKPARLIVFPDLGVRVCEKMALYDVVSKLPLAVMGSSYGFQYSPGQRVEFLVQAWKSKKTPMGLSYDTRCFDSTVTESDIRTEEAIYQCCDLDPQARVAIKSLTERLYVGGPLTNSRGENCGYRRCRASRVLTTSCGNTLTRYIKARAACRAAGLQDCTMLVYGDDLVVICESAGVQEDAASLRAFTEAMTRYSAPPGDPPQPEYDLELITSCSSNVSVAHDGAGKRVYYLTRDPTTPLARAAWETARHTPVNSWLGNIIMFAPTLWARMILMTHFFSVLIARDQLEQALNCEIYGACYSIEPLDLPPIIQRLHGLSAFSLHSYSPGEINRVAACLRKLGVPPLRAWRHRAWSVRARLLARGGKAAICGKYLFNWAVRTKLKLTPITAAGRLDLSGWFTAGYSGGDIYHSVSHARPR
T3 sequence (P27958 2421-2990): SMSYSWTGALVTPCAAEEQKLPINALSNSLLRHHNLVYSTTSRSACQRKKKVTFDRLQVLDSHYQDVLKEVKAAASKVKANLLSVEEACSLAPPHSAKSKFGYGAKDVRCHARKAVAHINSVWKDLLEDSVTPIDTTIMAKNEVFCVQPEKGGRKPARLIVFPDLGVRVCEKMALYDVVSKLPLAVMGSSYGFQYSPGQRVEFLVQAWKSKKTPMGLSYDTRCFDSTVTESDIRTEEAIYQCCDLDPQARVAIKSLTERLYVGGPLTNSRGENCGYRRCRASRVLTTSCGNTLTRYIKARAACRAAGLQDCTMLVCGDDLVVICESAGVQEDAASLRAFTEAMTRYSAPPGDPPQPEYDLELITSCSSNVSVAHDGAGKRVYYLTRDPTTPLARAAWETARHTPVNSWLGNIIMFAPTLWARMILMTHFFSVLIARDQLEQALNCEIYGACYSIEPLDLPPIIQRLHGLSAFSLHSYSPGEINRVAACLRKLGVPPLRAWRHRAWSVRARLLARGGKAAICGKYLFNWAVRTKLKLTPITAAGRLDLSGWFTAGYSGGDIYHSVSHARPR

SMILES | EC50 [1] [nM] | Stable Replicon Fold Resistance C316Y/1a [1] [fold] | IC50 [2] [nM] | EC50 [3, 15] [nM] | EC50 [3, 16] [nM] | EC50 [3, 17] [nM] | EC50 [3, 18] [nM] | EC50 [5, 19] [nM] | EC50 [5, 20] [nM] | EC50 [5, 21] [nM] | IC50 [6] [nM] | C316Y/1a Fold Resistance [7] [fold] | IC50 [8] [nM] | IC50 [9] [nM] | EC50 [13] [nM] | other results
CC(C)CCN(c1cc2oc(-c3ccc(Nc4ccccc4)cc3)c(-c3ncc[nH]3)c2cc1C1CC1)S(C)(=O)=O [Example 18, N-[2-(4-anilinophenyl)-5-cyclopropyl-3-(1H-imidazol-2-yl)-1-benzofuran-6-yl]-N-(3-methylbutyl)methanesulfonamide] | 3.8 | 0.711 | 85.6 | 5.4 | 234 | 5.4 | 5.4 | 602 | 9.5 | 9.5 | 101 | 4 | 25.8 | 30.4 | 9.4 | EC50 [4]: 13 nM; EC50 [10]: 12.3 nM; EC50 ([11]; Hepatitis C virus, Huh-7, read-out: Transient Replicon 1a H77-C316Y 5% FBS EC50): 0.3 nM; Transient Replicon Fold Resistance C316Y/1a ([11]; ratio of transient replicon EC50s, C316Y / 1a H77): 0.4 fold; EC50 [12]: 0.7 nM
COc1ccc(-c2nn3ccc(-c4cc(C(=O)NC5(c6ccccc6)CC5)ccc4C)cc3c2C2=NOCCN2)cc1 [Example 19, 3-[3-(5,6-dihydro-4H-1,2,4-oxadiazin-3-yl)-2-(4-methoxyphenyl)pyrazolo[1,5-a]pyridin-5-yl]-4-methyl-N-(1-phenylcyclopropyl)benzamide] | 1320 | 41.0 | 150 | 33.2 | 444 | 33.2 | 33.2 | 86.8 | 6.7 | 6.7 | 457 | 115 | 4 | 7.2 | 20.2 | EC50 [14]: 140 nM
